Two compounds from article PMC3639963, “A New Class of Small Molecule Inhibitor of BMP Signaling” (PLoS ONE, 2013) can be followed below.

Assay in all cases: Nanosyn kinase profiling
Assay type in all cases: biochemical
Common to all, as to conditions: read-out: Percentage inhibition; for inhibition at 0.1 µM: 0.1 µM inhibitor; for inhibition at 1 µM: 1 µM inhibitor

The target in one experiment is T1, BMX (Homo sapiens, UniProt P51813).
T1 construct: purchased Nanosyn (enzymatic panel); SGC in-house recombinant human kinases (DSF panel); Invitrogen (ALK1-6)
T1 sequence (P51813 1-675): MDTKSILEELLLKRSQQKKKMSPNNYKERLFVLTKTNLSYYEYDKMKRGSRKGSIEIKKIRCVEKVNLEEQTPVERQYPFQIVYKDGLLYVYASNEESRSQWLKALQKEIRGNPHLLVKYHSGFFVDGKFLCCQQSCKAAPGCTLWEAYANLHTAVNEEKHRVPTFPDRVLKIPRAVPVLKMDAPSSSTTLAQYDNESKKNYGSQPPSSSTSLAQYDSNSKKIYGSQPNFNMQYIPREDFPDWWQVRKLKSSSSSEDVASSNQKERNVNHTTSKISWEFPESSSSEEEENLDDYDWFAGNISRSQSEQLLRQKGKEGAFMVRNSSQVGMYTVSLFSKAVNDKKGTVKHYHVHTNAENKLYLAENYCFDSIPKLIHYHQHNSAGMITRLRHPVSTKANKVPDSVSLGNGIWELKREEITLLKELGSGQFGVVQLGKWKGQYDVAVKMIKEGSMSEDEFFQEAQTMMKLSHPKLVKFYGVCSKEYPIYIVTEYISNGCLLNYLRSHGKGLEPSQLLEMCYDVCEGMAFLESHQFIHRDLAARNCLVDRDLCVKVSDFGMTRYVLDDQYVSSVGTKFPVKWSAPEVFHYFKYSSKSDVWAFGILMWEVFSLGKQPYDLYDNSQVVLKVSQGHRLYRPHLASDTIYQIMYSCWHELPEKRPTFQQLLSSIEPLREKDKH
The method, boiled down: (§1)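 Percent inhibition of each kinase was measured with the inhibitor at 0.1 µM and at 1 µM, as part of a 200-kinase human selectivity panel.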

Another experiment addresses T2, ERBB2 (Homo sapiens, UniProt P04626).
T2 construct: purchased Nanosyn (enzymatic panel); SGC in-house recombinant human kinases (DSF panel); Invitrogen (ALK1-6)
Summed up:
as §1

The next experiment deals with T3, PAK2 (Homo sapiens, UniProt Q13177).
T3 construct: purchased Nanosyn (enzymatic panel); SGC in-house recombinant human kinases (DSF panel); Invitrogen (ALK1-6)
The method, boiled down:
as §1

A further experiment addresses T4, PAK6 (Homo sapiens, UniProt Q9NQU5).
T4 construct: purchased Nanosyn (enzymatic panel); SGC in-house recombinant human kinases (DSF panel); Invitrogen (ALK1-6)
The method, boiled down: as §1

The next experiment addresses T5, PI3-K-α (Homo sapiens, UniProt P42336).
T5 construct: purchased Nanosyn (enzymatic panel); SGC in-house recombinant human kinases (DSF panel); Invitrogen (ALK1-6)
Summed up: as §1

Another experiment has as its target T6, PRKD1 (Homo sapiens, UniProt Q15139).
T6 construct: purchased Nanosyn (enzymatic panel); SGC in-house recombinant human kinases (DSF panel); Invitrogen (ALK1-6)
T6 sequence (Q15139 1-912): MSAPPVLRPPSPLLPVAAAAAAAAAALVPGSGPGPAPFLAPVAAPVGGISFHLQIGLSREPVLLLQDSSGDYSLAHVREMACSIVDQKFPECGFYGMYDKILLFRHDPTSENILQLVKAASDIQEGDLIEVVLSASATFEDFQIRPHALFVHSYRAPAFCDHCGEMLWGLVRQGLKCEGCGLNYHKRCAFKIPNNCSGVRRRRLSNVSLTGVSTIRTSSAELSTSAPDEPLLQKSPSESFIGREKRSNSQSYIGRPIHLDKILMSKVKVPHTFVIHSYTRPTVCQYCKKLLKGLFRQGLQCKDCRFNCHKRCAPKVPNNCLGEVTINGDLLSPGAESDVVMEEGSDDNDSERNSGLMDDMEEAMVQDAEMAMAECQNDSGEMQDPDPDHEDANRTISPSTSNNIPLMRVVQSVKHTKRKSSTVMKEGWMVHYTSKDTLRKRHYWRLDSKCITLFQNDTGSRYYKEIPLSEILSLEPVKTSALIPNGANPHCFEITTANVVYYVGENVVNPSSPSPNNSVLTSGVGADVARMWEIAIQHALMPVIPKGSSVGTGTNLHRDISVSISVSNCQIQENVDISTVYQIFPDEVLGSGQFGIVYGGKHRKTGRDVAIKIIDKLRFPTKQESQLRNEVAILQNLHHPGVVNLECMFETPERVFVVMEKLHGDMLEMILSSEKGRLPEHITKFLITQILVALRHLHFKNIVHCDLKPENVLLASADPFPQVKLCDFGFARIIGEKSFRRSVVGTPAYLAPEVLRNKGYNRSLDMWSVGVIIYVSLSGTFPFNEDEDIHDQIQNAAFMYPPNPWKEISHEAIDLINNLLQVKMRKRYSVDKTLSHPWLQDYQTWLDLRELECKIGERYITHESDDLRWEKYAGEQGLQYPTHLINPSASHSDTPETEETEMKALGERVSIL
Summed up: as §1

In a further experiment the target is T7, TBK1 (Homo sapiens, UniProt Q9UHD2).
T7 construct: purchased Nanosyn (enzymatic panel); SGC in-house recombinant human kinases (DSF panel); Invitrogen (ALK1-6)
T7 sequence (Q9UHD2 1-729): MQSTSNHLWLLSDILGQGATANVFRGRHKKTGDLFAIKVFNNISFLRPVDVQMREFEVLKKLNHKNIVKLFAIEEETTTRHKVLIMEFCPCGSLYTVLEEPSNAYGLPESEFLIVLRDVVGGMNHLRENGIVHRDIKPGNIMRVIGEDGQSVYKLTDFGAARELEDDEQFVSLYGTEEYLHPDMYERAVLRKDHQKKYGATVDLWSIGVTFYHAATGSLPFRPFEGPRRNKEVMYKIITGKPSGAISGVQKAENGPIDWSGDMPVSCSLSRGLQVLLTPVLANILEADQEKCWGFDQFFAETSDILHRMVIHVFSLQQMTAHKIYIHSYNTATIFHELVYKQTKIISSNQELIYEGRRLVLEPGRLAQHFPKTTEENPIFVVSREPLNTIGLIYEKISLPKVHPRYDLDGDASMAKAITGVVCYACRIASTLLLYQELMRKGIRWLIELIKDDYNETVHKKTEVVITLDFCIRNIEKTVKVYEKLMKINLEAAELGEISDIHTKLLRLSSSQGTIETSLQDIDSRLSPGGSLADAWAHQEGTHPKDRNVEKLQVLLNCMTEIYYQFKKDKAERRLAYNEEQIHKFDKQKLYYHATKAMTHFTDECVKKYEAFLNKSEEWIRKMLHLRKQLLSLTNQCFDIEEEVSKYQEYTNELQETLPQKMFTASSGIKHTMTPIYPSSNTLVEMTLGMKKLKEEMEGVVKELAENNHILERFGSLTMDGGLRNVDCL
Summed up: as §1

The target in another experiment is T8, TYK2 (Homo sapiens, UniProt P29597).
T8 construct: purchased Nanosyn (enzymatic panel); SGC in-house recombinant human kinases (DSF panel); Invitrogen (ALK1-6)
The method, boiled down: as §1

T3 sequence (Q13177 whole entry): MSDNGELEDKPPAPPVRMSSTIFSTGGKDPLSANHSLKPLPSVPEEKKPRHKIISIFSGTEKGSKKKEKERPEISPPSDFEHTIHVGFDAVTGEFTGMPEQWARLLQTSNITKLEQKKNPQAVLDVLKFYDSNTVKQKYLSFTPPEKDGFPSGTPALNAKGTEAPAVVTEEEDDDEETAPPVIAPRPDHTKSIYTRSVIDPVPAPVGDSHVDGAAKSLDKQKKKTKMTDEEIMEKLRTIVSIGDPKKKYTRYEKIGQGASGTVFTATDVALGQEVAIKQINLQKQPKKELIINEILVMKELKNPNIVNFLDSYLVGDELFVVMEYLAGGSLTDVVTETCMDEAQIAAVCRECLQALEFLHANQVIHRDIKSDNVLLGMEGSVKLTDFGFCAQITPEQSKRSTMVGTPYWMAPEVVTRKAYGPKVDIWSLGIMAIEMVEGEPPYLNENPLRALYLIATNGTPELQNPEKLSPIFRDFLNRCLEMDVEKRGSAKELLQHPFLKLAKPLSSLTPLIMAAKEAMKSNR
T5 sequence (P42336 whole entry): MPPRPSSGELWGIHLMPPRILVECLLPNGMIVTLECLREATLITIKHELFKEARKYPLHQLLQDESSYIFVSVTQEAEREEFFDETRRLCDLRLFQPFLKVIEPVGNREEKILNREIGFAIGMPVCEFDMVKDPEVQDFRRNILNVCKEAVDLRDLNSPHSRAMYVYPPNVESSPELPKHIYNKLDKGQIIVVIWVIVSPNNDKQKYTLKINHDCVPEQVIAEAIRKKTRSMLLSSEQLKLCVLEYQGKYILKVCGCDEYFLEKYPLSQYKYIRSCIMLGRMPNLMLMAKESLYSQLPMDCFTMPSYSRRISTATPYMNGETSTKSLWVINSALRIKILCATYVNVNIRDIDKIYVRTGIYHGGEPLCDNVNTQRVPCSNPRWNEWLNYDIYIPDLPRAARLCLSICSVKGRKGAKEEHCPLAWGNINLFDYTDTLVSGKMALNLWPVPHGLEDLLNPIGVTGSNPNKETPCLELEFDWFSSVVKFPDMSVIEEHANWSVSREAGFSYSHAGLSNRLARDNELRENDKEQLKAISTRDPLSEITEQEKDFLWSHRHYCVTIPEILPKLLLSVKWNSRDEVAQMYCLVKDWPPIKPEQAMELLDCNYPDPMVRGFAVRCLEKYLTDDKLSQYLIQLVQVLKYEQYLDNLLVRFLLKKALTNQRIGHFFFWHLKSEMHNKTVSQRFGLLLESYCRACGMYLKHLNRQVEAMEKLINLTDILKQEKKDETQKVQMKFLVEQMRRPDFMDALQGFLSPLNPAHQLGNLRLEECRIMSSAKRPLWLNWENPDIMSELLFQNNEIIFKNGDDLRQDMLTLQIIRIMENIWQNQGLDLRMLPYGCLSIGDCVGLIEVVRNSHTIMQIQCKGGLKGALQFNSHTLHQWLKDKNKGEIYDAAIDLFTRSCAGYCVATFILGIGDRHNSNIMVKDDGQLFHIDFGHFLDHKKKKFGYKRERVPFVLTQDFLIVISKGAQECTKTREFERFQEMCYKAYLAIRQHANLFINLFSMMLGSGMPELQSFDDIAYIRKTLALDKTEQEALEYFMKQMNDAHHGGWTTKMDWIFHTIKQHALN
T5 sequence (P27986 whole entry partner): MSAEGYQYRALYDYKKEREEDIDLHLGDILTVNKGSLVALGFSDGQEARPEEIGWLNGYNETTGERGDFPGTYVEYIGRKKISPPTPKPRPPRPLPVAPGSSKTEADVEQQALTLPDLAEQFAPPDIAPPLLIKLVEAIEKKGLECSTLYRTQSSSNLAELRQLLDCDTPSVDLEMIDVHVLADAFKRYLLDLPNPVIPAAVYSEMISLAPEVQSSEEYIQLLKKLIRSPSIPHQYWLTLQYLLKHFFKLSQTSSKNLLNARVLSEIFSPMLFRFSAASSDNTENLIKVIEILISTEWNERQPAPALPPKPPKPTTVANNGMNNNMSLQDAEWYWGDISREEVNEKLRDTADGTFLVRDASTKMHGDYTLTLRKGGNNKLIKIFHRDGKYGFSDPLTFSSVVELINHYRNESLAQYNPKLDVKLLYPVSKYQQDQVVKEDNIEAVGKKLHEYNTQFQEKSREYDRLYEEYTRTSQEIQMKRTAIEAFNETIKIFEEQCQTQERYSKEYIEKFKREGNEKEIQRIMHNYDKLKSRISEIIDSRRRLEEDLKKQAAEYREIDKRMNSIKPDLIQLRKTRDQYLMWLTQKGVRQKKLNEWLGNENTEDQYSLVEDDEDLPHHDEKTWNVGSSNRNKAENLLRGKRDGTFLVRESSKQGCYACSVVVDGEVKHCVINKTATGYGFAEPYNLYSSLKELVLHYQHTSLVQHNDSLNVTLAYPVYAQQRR
T8 sequence (P29597 whole entry): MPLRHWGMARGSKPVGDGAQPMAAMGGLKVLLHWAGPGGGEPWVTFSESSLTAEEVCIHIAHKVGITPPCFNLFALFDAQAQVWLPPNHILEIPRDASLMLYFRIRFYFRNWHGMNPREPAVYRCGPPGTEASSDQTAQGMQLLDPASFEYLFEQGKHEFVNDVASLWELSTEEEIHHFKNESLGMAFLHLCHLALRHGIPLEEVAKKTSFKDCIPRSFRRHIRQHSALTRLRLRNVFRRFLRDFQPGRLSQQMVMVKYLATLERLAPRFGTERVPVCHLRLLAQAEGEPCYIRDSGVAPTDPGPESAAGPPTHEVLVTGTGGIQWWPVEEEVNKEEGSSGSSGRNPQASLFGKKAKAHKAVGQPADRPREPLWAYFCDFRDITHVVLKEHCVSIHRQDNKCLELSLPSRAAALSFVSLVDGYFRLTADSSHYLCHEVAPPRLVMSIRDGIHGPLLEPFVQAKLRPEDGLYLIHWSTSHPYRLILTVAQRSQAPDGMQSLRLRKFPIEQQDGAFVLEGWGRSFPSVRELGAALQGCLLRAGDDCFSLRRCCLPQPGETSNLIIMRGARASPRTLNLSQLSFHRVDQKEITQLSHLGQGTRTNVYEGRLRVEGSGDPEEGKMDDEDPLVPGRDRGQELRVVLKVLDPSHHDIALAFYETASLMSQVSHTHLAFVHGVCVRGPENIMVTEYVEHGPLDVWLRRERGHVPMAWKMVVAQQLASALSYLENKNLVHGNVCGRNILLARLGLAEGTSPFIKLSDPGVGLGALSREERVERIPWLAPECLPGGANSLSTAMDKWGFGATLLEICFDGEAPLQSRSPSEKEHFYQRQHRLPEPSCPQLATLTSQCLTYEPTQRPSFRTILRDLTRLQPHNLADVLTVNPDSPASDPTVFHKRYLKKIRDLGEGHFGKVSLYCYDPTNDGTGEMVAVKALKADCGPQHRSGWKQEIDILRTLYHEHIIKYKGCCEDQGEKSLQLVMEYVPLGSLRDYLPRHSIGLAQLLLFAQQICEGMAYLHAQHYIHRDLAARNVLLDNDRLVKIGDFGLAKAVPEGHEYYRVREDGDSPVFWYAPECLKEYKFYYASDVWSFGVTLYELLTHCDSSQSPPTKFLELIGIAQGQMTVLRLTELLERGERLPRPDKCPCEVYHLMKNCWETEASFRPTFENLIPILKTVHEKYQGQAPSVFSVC
T4 sequence (Q9NQU5 whole entry): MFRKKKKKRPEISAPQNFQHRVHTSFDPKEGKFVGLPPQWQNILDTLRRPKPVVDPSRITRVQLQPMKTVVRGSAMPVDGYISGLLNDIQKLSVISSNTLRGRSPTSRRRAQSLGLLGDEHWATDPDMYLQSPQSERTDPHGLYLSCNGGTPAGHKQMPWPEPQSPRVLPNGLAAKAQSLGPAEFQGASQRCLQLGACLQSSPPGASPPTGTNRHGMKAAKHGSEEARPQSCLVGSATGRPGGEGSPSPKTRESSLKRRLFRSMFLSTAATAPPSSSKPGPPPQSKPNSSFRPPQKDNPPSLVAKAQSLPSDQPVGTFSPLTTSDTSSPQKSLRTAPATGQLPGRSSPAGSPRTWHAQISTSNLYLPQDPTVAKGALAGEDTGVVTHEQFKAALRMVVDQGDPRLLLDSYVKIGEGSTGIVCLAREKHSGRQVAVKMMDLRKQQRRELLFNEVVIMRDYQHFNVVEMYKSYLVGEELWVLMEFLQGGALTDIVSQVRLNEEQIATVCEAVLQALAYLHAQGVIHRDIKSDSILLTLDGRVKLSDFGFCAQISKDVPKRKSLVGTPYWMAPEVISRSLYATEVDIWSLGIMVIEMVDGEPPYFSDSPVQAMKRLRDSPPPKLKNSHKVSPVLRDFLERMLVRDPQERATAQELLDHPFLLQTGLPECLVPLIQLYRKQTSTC

One may read the inhibition as the change of the read-out against control, counted positive when it falls. As to `COc1cc(-c2cc(-c3cccc(O)c3)cnc2N)cc(OC)c1OC` [K02288, 3-[6-amino-5-(3,4,5-trimethoxy-phenyl)-pyridin-3-yl]-phenol], the inhibition at 0.1 µM at BMX was 0.5%; at ERBB2, -5%; at PAK2, -1%; on PAK6, 0.8%; on PI3-K-α it was 2.6%; on PRKD1, 0%. Moreover, the inhibition at 0.1 µM at TBK1 was determined as 1.5%; at TYK2, 0%. The inhibition at 1 µM at BMX is 19%; at ERBB2, -3%; at PAK2, -1%; on PAK6, 1.9%; at PI3-K-α, 2%; on PRKD1 it was 6.1%. For the same compound, the inhibition at 1 µM at TBK1 was found to be 3.7%; on TYK2, 1.8%.

Consider `c1ccc2c(-c3cnn4cc(-c5ccc(N6CCNCC6)cc5)cnc34)ccnc2c1` [LDN-193189], for which the inhibition at 0.1 µM stood at 0.2% on BMX; 2.1% on ERBB2; 0% at PAK2; 8.8% at PAK6; 2.1% on PI3-K-α; 4.6% on PRKD1. Moreover, the values for the inhibition at 0.1 µM at TBK1 and at TYK2 were 4.5% and -1%, respectively. The inhibition at 1 µM was determined as 4% at BMX; 2.1% on ERBB2; 0% at PAK2; 5.1% at PAK6; 1.5% on PI3-K-α; 15% on PRKD1. In addition, the figures for the inhibition at 1 µM on TBK1 and on TYK2 were 16% and -2%, respectively.
